Experimental data reported in ChEMBL document CHEMBL1201862, “PubChem BioAssay data set” (2004).
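Protocol summary: plate cells (96-well), add compound at 5 concentrations, incubate 48 h, interpolate endpoints linearly. Here, GI50 denotes the concentration required for 50% inhibition of growth.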 Activity calls are given as the source filed them. Cut-off read from the data, not from the text of the source: active = GI50 up to about 1.1 µM and inactive = higher.

Columns and labels:
Test in all cases: NCI anticancer screen, dose series, 48 h
OVCAR-8 = system: OVCAR-8
HCT-116 = system: HCT-116
NCI-H23 = system: NCI-H23
NCI-H460 = system: NCI-H460
NCI-H522 = system: NCI-H522
M14 = system: M14
UACC-62 = system: UACC-62
RPMI-8226 = system: RPMI-8226
HOP-62 = system: HOP-62
HCC 2998 = system: HCC 2998
COLO 205 = system: COLO 205
U-251 = system: U-251
BT-549 = system: BT-549
MCF7 = system: MCF7
SK-MEL-5 = system: SK-MEL-5
DU-145 = system: DU-145
K562 = system: K562
RXF 393 = system: RXF 393
Hs-578T = system: Hs-578T
LOX IMVI = system: LOX IMVI

Structure (SMILES)	GI50 (OVCAR-8)	GI50 (HCT-116)	GI50 (NCI-H23)	GI50 (NCI-H460)	GI50 (NCI-H522)	GI50 (M14)	GI50 (UACC-62)	GI50 (RPMI-8226)	GI50 (HOP-62)	GI50 (HCC 2998)	GI50 (COLO 205)	GI50 (U-251)	GI50 (BT-549)	GI50 (MCF7)	GI50 (SK-MEL-5)	GI50 (DU-145)	GI50 (K562)	GI50 (RXF 393)	GI50 (Hs-578T)	GI50 (LOX IMVI)
CN(C)CC/C=C1\c2ccccc2Sc2ccc(Cl)cc21	15.5 µM (inactive)	11.6 µM (inactive)	15.6 µM (inactive)	11.7 µM (inactive)	12.6 µM (inactive)	3.01 µM (inactive)	13.6 µM (inactive)	3.78 µM (inactive)	14.4 µM (inactive)	2.22 µM (inactive)	14.2 µM (inactive)	12.7 µM (inactive)	15.2 µM (inactive)	15.1 µM (inactive)	14 µM (inactive)	15.4 µM (inactive)	5.16 µM (inactive)	12.5 µM (inactive)	14.4 µM (inactive)	13.8 µM (inactive)
CC(=O)Nc1ccc2c3c(cc(O)c2c1)N(C(=O)CCCCC(=O)N1CC(CCl)c2c1cc(O)c1cc(NC(C)=O)ccc21)CC3CCl (centres undefined)	0.253 µM (active)	0.125 µM (active)	< 0.0161 µM (active)	< 0.01 µM (active)	0.0575 µM (active)	0.083 µM (active)	0.0154 µM (active)	0.169 µM (active)	0.177 µM (active)	0.21 µM (active)	0.102 µM (active)	0.0285 µM (active)	0.183 µM (active)	< 0.01 µM (active)	0.129 µM (active)	< 0.01 µM (active)	0.284 µM (active)	0.153 µM (active)	0.423 µM (active)	0.0313 µM (active)
CS(=O)(=O)Nc1ccc2c(c1)N(S(C)(=O)=O)CC2CCl (centres undefined)	> 100 µM (inactive)	> 100 µM (inactive)	> 100 µM (inactive)	> 100 µM (inactive)	> 100 µM (inactive)	–	> 100 µM (inactive)	> 100 µM (inactive)	> 100 µM (inactive)	> 100 µM (inactive)	> 100 µM (inactive)	> 100 µM (inactive)	> 100 µM (inactive)	> 100 µM (inactive)	> 100 µM (inactive)	> 100 µM (inactive)	> 100 µM (inactive)	> 100 µM (inactive)	> 100 µM (inactive)	> 100 µM (inactive)
CN1C(=O)C(O)C[C@@H]1c1ccccc1 (some centres undefined)	> 100 µM (inactive)	> 100 µM (inactive)	> 100 µM (inactive)	–	> 100 µM (inactive)	> 100 µM (inactive)	> 100 µM (inactive)	> 100 µM (inactive)	> 100 µM (inactive)	> 100 µM (inactive)	> 100 µM (inactive)	> 100 µM (inactive)	> 100 µM (inactive)	> 100 µM (inactive)	> 100 µM (inactive)	> 100 µM (inactive)	–	> 100 µM (inactive)	> 100 µM (inactive)	> 100 µM (inactive)
O=C(O)c1nc2ccc(C(F)(F)F)cc2nc1Nc1ccc(Cl)c(Cl)c1	4.91 µM (inactive)	5.12 µM (inactive)	4.17 µM (inactive)	7.41 µM (inactive)	2.95 µM (inactive)	–	2.3 µM (inactive)	–	7.85 µM (inactive)	4.99 µM (inactive)	11.6 µM (inactive)	3.93 µM (inactive)	2.62 µM (inactive)	14.3 µM (inactive)	10.6 µM (inactive)	9.68 µM (inactive)	3.66 µM (inactive)	13.4 µM (inactive)	18.4 µM (inactive)	9.82 µM (inactive)
Nc1nccc(NCC2(CO)CC(OCc3ccccc3)C2)n1 (centres undefined)	> 100 µM (inactive)	90.4 µM (inactive)	> 100 µM (inactive)	> 100 µM (inactive)	98.9 µM (inactive)	–	> 100 µM (inactive)	> 100 µM (inactive)	> 100 µM (inactive)	> 100 µM (inactive)	99.1 µM (inactive)	> 100 µM (inactive)	> 100 µM (inactive)	> 100 µM (inactive)	35.8 µM (inactive)	79.4 µM (inactive)	79.1 µM (inactive)	> 100 µM (inactive)	> 100 µM (inactive)	> 100 µM (inactive)
Cc1n(-c2ccccc2)c2c([n+]1Cc1ccc([N+](=O)[O-])cc1)C(=O)c1ccccc1C2=O	2.37 µM (inactive)	2.02 µM (inactive)	1.9 µM (inactive)	3.78 µM (inactive)	0.579 µM (active)	2.59 µM (inactive)	2.03 µM (inactive)	0.845 µM (active)	6.5 µM (inactive)	2.26 µM (inactive)	1.59 µM (inactive)	1.75 µM (inactive)	1.79 µM (inactive)	1.37 µM (inactive)	1.85 µM (inactive)	1.85 µM (inactive)	1.16 µM (inactive)	7.66 µM (inactive)	1.78 µM (inactive)	1.75 µM (inactive)
